In patent US10189777B2, “Benzenesulfonamido and related compounds for use as agonists of RORγ and the treatment of disease” (Lycera Corporation, priority 2014, dated 2019):

Target: T1, HIS-tagged RORγ-LBD protein (Homo sapiens, UniProt P51449)
T1 construct: made in house; host or cells: SF9 cells, baculovirus expression system; the lysate was used
T1 sequence (P51449 269-508 limits assumed): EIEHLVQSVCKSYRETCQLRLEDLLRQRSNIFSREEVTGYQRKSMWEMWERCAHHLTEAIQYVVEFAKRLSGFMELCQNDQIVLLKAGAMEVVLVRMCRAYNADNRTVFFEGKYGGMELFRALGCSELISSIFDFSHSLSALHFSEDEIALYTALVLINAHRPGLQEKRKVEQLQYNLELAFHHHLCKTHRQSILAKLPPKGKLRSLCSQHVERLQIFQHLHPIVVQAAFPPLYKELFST
Assay: RORγ-Ligand Binding Domain (LBD) TR-FRET Assay
Assay type: biochemical
Conditions: for TR-FRET Assay Max Response: upper plateau of 4-parameter fit, signal in the absence of ursolic acid or test compound set as 100; for EC50: with 2 μM RORγ antagonist ursolic acid, biotinylated SRC1 LXXLL peptide, ratio 665 nm/615 nm
Experimental: Exemplary compounds from the above Examples were tested for ability to increase RORγ activity using (i) a RORγ-Ligand Binding Domain (LBD) TR-FRET Assay, and (ii) a Gal4-RORγ Luciferase Reporter Assay in HEK-293T Cells. Assay procedures and results are described below.
Part I—Procedures for RORγ-Ligand Binding Domain TR-FRET Assay
HIS-tagged RORγ-LBD protein was expressed in SF9 cells using a baculovirus expression system. The lysate was diluted in assay buffer (50 mM Tris pH 7.0, 50 mM KCl, 1 mM EDTA, 0.1 mM DTT, 0.01% BSA) to obtain RORγ-LBD final concentration of −3 nM in a 384-well assay plate (need to titrate for each batch of protein).
A stock of biotinylated-LXXLL peptide from coactivator SRC1 (Biotin-[…]) was prepared in assay buffer and added to each well (200 nM final concentration). A solution of Europium tagged anti-HIS antibody (0.6 nM final concentration) and APC-conjugated streptavidin (30 nM final concentration) were also added to each well. RORγ antagonist ursolic acid was also included at a final concentration of 2 μM. Compounds were diluted in DMSO and further diluted in assay buffer with a final DMSO concentration at 1%.
The final assay mixture was incubated overnight at 4° C. or 2 hours at room temperature, and the fluorescence signal was measured on an Envision plate reader: (Excitation filter=340 nm; APC emission=665 nm; Europium emission=615 nm; dichroic mirror=D400/D630; delay time=100 μs, integration time=200 μs). 50% Effective concentration (EC50) values for test compounds were calculated from the quotient of the fluorescence signal at 665 nm divided by the fluorescence signal at 615 nm. The quotient of the fluorescence signals in the absence of ursolic acid or test compound is set as 100. Max Response is defined as the upper plateau in the signal as determined by line-fit using a 4-parameter logistic model in PRISM (GraphPad).

| SMILES | TR-FRET Assay Max Response | EC50 |
| --- | --- | --- |
| CCN(c1cccc(OCc2ccccc2F)c1)S(=O)(=O)c1cccc(C(F)(F)F)c1 | *** (The symbol “***” indicates a value in the range of greater than 150 to 200) | < 0.5 µM |
| CCN(c1cccc(COC2CCCCC2C(F)(F)F)c1)S(=O)(=O)c1cccc(C(F)(F)F)c1 (stereo not shown) | ** (The symbol “**” indicates a value in the range of greater than 90 to 150) | 0.5 to 5 µM |
| CCN(c1cccc(COC2(C)CCCCC2)c1)S(=O)(=O)c1cccc(C(F)(F)F)c1 | ** (The symbol “**” indicates a value in the range of greater than 90 to 150) | < 0.5 µM |
| CCN(c1cccc(COC2CCCCC2)c1)S(=O)(=O)c1cccc(C(F)(F)F)c1 | ** (The symbol “**” indicates a value in the range of greater than 90 to 150) | 0.5 to 5 µM |
| CCN(c1cccc(C(C)Oc2ccccc2Cl)c1)S(=O)(=O)c1cccc(C(F)(F)F)c1 (stereo not shown) | ** (The symbol “**” indicates a value in the range of greater than 90 to 150) | > 10 µM |
| CCN(c1cccc(C(C)Oc2c(F)cccc2Cl)c1)S(=O)(=O)c1cccc(C(F)(F)F)c1 (stereo not shown) | ** (The symbol “**” indicates a value in the range of greater than 90 to 150) | < 0.5 µM |
| CCN(c1cccc(COc2ccccc2Cl)c1)S(=O)(=O)c1cccc(C(F)(F)F)c1 | ** (The symbol “**” indicates a value in the range of greater than 90 to 150) | 0.5 to 5 µM |
| CCN(c1cccc(COc2c(F)cccc2Cl)c1)S(=O)(=O)c1cccc(C(F)(F)F)c1 | ** (The symbol “**” indicates a value in the range of greater than 90 to 150) | < 0.5 µM |
| CCN(c1cccc(Cn2ncc3ccccc32)c1)S(=O)(=O)c1cccc(C(F)(F)F)c1 | ** (The symbol “**” indicates a value in the range of greater than 90 to 150) | > 10 µM |
| CCN(Cc1cccc(N(CC)S(=O)(=O)c2cccc(C(F)(F)F)c2)c1)c1ccccc1Cl | ** (The symbol “**” indicates a value in the range of greater than 90 to 150) | 0.5 to 5 µM |
| CCN(c1cccc(Cn2c(=O)oc3ccccc32)c1)S(=O)(=O)c1cccc(C(F)(F)F)c1 | ** (The symbol “**” indicates a value in the range of greater than 90 to 150) | > 10 µM |
| CCN(c1cccc(CN2CCc3ccccc32)c1)S(=O)(=O)c1cccc(C(F)(F)F)c1 | ** (The symbol “**” indicates a value in the range of greater than 90 to 150) | 0.5 to 5 µM |
| CCN(c1cccc(CNc2ccccc2Cl)c1)S(=O)(=O)c1cccc(C(F)(F)F)c1 | ** (The symbol “**” indicates a value in the range of greater than 90 to 150) | > 10 µM |
| CCN(Cc1ccccc1Cl)c1cccc(N(CC)S(=O)(=O)c2cccc(C(F)(F)F)c2)c1 | ** (The symbol “**” indicates a value in the range of greater than 90 to 150) | > 10 µM |
| CCN(c1cccc(CNCc2ccccc2Cl)c1)S(=O)(=O)c1cccc(C(F)(F)F)c1 | ** (The symbol “**” indicates a value in the range of greater than 90 to 150) | > 10 µM |
| CCN(c1cccc(OCCc2ccccc2)c1)S(=O)(=O)c1cccc(C(F)(F)F)c1 | ** (The symbol “**” indicates a value in the range of greater than 90 to 150) | > 10 µM |
| CCN(c1cccc(OC(C)c2c(F)cccc2Cl)c1)S(=O)(=O)c1cccc(C(F)(F)F)c1 (stereo not shown) | – | > 10 µM |

| SMILES | TR-FRET Assay Max Response | EC50 |
| --- | --- | --- |
| CCN(c1cccc(OCc2cc(C(F)(F)F)ccc2Cl)c1)S(=O)(=O)c1cccc(C(F)(F)F)c1 | *** (The symbol “***” indicates a value in the range of greater than 150 to 200) | > 10 µM |
| CCN(c1cccc(OCc2ccc(Cl)cc2Cl)c1)S(=O)(=O)c1cccc(C(F)(F)F)c1 | ** (The symbol “**” indicates a value in the range of greater than 90 to 150) | > 10 µM |
| CCN(c1cccc(OCc2cccc(C(F)(F)F)c2Cl)c1)S(=O)(=O)c1cccc(C(F)(F)F)c1 | – | > 10 µM |
| CCN(c1cccc(OCc2cccc(Cl)c2Cl)c1)S(=O)(=O)c1cccc(C(F)(F)F)c1 | – | > 10 µM |
| CCOc1nn(CC)cc1S(=O)(=O)N(CC)c1cccc(OCc2ccccc2)c1 | – | > 10 µM |
| CCN(c1cccc(CNC2CCCCC2)c1)S(=O)(=O)c1cccc(C(F)(F)F)c1 | – | > 10 µM |
| CCN(c1cccc(OC2Cc3ccccc3C2)c1)S(=O)(=O)c1cccc(C(F)(F)F)c1 | *** (The symbol “***” indicates a value in the range of greater than 150 to 200) | 0.5 to 5 µM |
| CCN(c1cccc(OCC2CCCCC2)c1)S(=O)(=O)c1cccc(C(F)(F)F)c1 | **** (The symbol “****” indicates a value greater than 200) | < 0.5 µM |
| CCN(c1cccc(OCc2c(F)cccc2Cl)c1)S(=O)(=O)c1cccc(C(F)(F)F)c1 | **** (The symbol “****” indicates a value greater than 200) | < 0.5 µM |
| CCN(c1cccc(OC2CCc3ccccc32)c1)S(=O)(=O)c1cccc(C(F)(F)F)c1 (stereo not shown) | **** (The symbol “****” indicates a value greater than 200) | < 0.5 µM |
| CCN(c1cccc(OCc2ccccc2)c1)S(=O)(=O)c1cccc(C(F)(F)F)c1 | *** (The symbol “***” indicates a value in the range of greater than 150 to 200) | 0.5 to 5 µM |
| CCC(c1ccc(OCc2ccccc2)cc1)S(=O)(=O)c1cccc(C(F)(F)F)c1 (stereo not shown) | ** (The symbol “**” indicates a value in the range of greater than 90 to 150) | 0.5 to 5 µM |
| CCC(c1cccc(OCc2c(F)cccc2Cl)c1)S(=O)(=O)c1cccc(C(F)(F)F)c1 (stereo not shown) | *** (The symbol “***” indicates a value in the range of greater than 150 to 200) | < 0.5 µM |
| CCC(c1ccc(OCc2ccccc2)cc1)S(=O)(=O)c1ccc(Cl)cc1 (stereo not shown) | *** (The symbol “***” indicates a value in the range of greater than 150 to 200) | 0.5 to 5 µM |
| CCC(c1cccc(OCc2ccccc2)c1)S(=O)(=O)c1ccc(Cl)cc1 (stereo not shown) | * (The symbol “*” indicates a value in the range of 70 to 90) | > 10 µM |
| CCC(c1cccc(OCc2c(F)cccc2Cl)c1)S(=O)(=O)c1ccc(Cl)cc1 (stereo not shown) | *** (The symbol “***” indicates a value in the range of greater than 150 to 200) | < 0.5 µM |
